Earlier results, collected in patent US12156879B2, “Combining BACE1 inhibitors with mGluR agonists for Alzheimer's disease therapy” (University of Connecticut, priority 2019, dated 2024).

Legend:
hippocampal LTP = details: mice treated with the BACE1 inhibitor; cited from earlier work
[1] = test system: layer V pyramidal neurons; details: mice treated with the BACE1 inhibitor; cited from earlier work

Row | Compound | hippocampal LTP (hippocampal LTP) | spine formation in layer V pyramidal neurons [1]
1 | C[C@@]1(c2cc(-c3cncnc3)c(F)cc2F)CCSC(N)=N1 [LY2811376] | impaired | reduced
2 | CC#Cc1cncc(-c2cc(Cl)c(C3(C)CC(=O)N(C)C(=N)N3)s2)c1 (stereo not shown) [SCH1682496] | impaired | reduced
